Data taken from US20240101548A1, “HYDROXAMATE COMPOUND, PREPARATION METHOD THEREFOR AND APPLICATION THEREOF” (SHENZHEN CHIPSCREEN BIOSCIENCES CO., LTD., priority 2020, published 2024).
Where two headings read alike, the source gives them in different places.

Tests used:
Format in all cases: cell-based, human
[1] = test system: EPO-induced JAK2 signal pathway; assay: EPO-induced proliferation of UT-7 cells (JAK2 signal); conditions: Homo sapiens, UT7; UT-7 cell proliferation, EPO 10 ng/mL, 72 hours; read-out: Inhibition activity IC50 on EPO-induced JAK2 signal pathway
Summary of the method: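 UT-7 cells (15000/well) stimulated with 10 ng/mL human recombinant EPO plus compound at final 0, 100, 1000 or 10000 nM, 72 h at 37° C., 5% CO2. Proliferation by alamarBlue fluorescence (Ex530/Em590); inhibition normalised to no-cytokine/no-compound (0) and EPO-only (100) wells, […] derived from dose-inhibition.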

[2] = test system: IL-2-induced JAK1/JAK3 signal pathway; assay: IL-2-induced proliferation of KHYG-1 cells (JAK1/JAK3 signal); conditions: Homo sapiens; KHYG-1 cell proliferation, IL-2 10 ng/mL, 72 hours; read-out: Inhibition activity IC50 on IL-2-induced JAK1/JAK3 signal pathway
Summary of the method: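 KHYG-1 NK lymphoma cells were cultured with IL-2 and test compound at various doses for 72 h at 37 °C and 5% CO2, and proliferation was read with alamarBlue fluorescence. Inhibition was normalized to wells without compound or cytokine (0%) and IL-2 wells without compound (100%), and C50 was derived from the dose-inhibition data.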

[3] = test system: IL-10-induced JAK1/TYK2 signal pathway; assay: IL-10-induced JAK1/TYK2 signal pathway STAT3-Luc reporter gene assay in U2OS cells; conditions: Homo sapiens, U2OS cells, STAT3-Luc reporter, IL-10 10 ng/mL, read-out: Half inhibition dose (IC50) on IL-10-induced JAK1/TYK2 signal pathway
Text: Cytokine IL-10 is one of the main members of IL-10 family. The receptor that cytokine IL-10 binds to consists of two kinds of subunits, i.e., IL-10R1 and IL-10R2, which respectively couple with JAK1 and TYK2. After the coupling of IL-10 with its receptor, interaction of phosphorylation occurs between JAK1 and TYK2 to form STAT3 docking site for phosphorylation of STAT3. The phosphorylated STAT3 enters the nucleus and drives the transcription and expression of downstream genes.
The reporter gene plasmid STAT3-Luc Reporter used in the present invention has luciferase expression sequence as the reporter gene, upstream of which is a promoter sequence containing multiple STAT3 binding sites. When phosphorylated STAT3 induced by IL-10 signal pathway binds to the promoter of STAT3-Luc Reporter plasmid, luciferase is transcribed and expressed. The excitation fluorescence catalyzed by Luciferase can be detected after the addition of […] substrate, whose intensity can quantitively reflect the activation level of the signal pathway.
Human osteosarcoma cell line U20S was commercially available from American Type Culture Collection (ATCC), and relevant culture conditions referred to those from ATCC. It was known that such cell line could express IL-10R2, JAK1, TYK2 and STAT3, therefore, by exogenous expression of IL-10R1 gene, a complete IL-10 signal pathway could be established. The human IL-10R1 subunit overexpression plasmid pCMV3-IL10RA-EGFP was constructed by Shanghai Genechem Co., Ltd., and capable of simultaneously expressing enhanced green fluorescent protein. In the subsequent detection and calculation, the signal of green fluorescent protein in the tested sample was used as a reference for transfection efficiency calibration of the luciferase reporter gene signal. Reporter plasmid STAT3-Luc Reporter was commercially available from Ji Man Biotech (Shanghai) Co., Ltd.
X-tremeGENE 9 DNA Transfection Reagent (Roche) was used for the transfection of plasmid DNA into cells, Cell Culture Lysis 5× reagent (Promega) and Luciferase Assay System (Promega) were used in cell lysate preparation and enzyme-substrate reaction for luciferase reporter gene detection. Green fluorescent protein signal and luciferase reporter gene signal were both detected by Tecan Spark™ 10M multimode microplate reader. The inhibition rate of the tested compound on the IL-10 signal pathway reporter gene signal and the half inhibition dose IC50 were both calculated using Microsoft Excel and GraphPad Prism 7.00 software.
U2OS cell line was inoculated in 96-well plate with flat bottom at 5000 cells per well, and cultured overnight at 37° C. and 5% CO2 followed by plasmid transfection. Following the instructions and using X-tremeGENE 9 DNA Transfection Reagent, pCMV3-IL10RA-EGFP and STAT3-Luc Reporter plasmids were co-transfected into the inoculated U2OS cells. After 24 hours of transfection, the tested compound was added respectively for a final concentration of 0, 0.1, 0.3, 1, 3, 10, 30, 100, or 300 nM. After 6 hours of culture at 37° C. and 5% CO2, IL-10 cytokine (Human IL-10 PEPROTECH 200-10-10UG) was added to each well for a final concentration of 10 ng/mL, the well in which neither compound nor cytokine was added was designated as 0% control well. The culture was continued for 24 hours before testing.
Cell lysate was prepared by using Cell Culture Lysis reagent and transferred to 96-well plate with half-well clear bottom. The green fluorescent protein signal value was detected at Ex485/Em520 using Tecan microplate reader, and recorded. After adding to each well the luciferase substrate from Luciferase Assay System, the signal value of luciferase-substrate reaction was immediately detected at 560 nm using Tecan microplate reader, and recorded.
Using Microsoft Excel software, the signal value of luciferase-substrate reaction of each well was calculated and calibrated based on the signal value of green fluorescent protein of each well. […]

Compound	IC50 ([3]; U2OS) [µM]	IC50 [1] [µM]	IC50 [2] [µM]	IC50 [3] [µM]
CONC(=O)c1cnc(Nc2ccc(OC)cn2)cc1Nc1ccc(C2CC2)cc1N(C)S(C)(=O)=O [Example 16, 4-((4-cyclopropyl-2-(N-methylmethanesulfonamido)phenyl)amino)-N-methoxy-6-((5-methoxypyridin-2-yl)amino)nicotinamide]	0.00127	> 10	> 10	–
C#Cc1ccc(Nc2cc(Nc3ccc(OC)cn3)ncc2C(=O)NOC)c(N(C)S(C)(=O)=O)c1 [Example 18, 4-((4-ethynyl-2-(N-methylmethanesulfonamido)phenyl)amino)-N-methoxy-6-((5-methoxypyridin-2-yl)amino)nicotinamide]	–	> 10	> 10	0.000784
C#Cc1ccc(Nc2cc(Nc3cccc(F)n3)ncc2C(=O)NOC)c(N(C)S(C)(=O)=O)c1 [Example 19]	0.00106	> 10	> 10	–
CCONC(=O)c1cnc(Nc2ccc(OC)cn2)cc1Nc1ccc(C2CC2)cc1N(C)S(C)(=O)=O [Example 20, 4-((4-cyclopropyl-2-(N-methylmethanesulfonamido)phenyl)amino)-N-ethoxy-6-((5-methoxypyridin-2-yl)amino)nicotinamide]	0.000955	> 10	> 10	–
CCONC(=O)c1cnc(Nc2cccc(F)n2)cc1Nc1ccc(C2CC2)cc1N(C)S(C)(=O)=O [Example 22, 4-((4-cyclopropyl-2-(N-methylmethanesulfonamido)phenyl)amino)-N-ethoxy-6-((6-fluoropyridin-2-yl)amino)nicotinamide]	0.00057	> 10	> 10	–
CONC(=O)c1cnc(NC(=O)C2CC2)cc1Nc1cccc(-c2ccn(C)n2)c1OC [Example 29, 6-(cyclopropylcarboxamido)-N-methoxy-4-((2-methoxy-3-(1-methyl-1H-pyrazol-3-yl)phenyl)amino)nicotinamide]	0.00233	> 10	> 10	–
CONC(=O)c1cnc(Nc2cccc(F)n2)cc1Nc1cccnc1N(C)S(C)(=O)=O [Example 36, 6-((6-fluoropyridin-2-yl)amino)-N-methoxy-4-((2-(N-methylmethanesulfonamido)pyridin-3-yl)amino)nicotinamide]	0.000686	> 10	> 10	–
CONC(=O)c1cnc(Nc2cccc(F)n2)cc1Nc1cccc(F)c1N(C)S(C)(=O)=O [Example 38, 4-((3-fluoro-2-(N-methylmethanesulfonamido)phenyl)amino)-6-((6-fluoropyridin-2-yl)amino)-N-methoxy nicotinamide]	0.000506	> 10	> 10	–
CONC(=O)c1cnc(NC(=O)C2CC2)cc1Nc1cccc(-n2cccn2)c1OC [Example 41, 6-(cyclopropylcarboxamido)-N-methoxy-4-((2-methoxy-3-(1H-pyrazol-1-yl)phenyl)amino)nicotinamide]	–	> 10	> 10	0.0017
CONC(=O)c1cnc(Nc2cccc(F)n2)cc1Nc1cccc(-n2cccn2)c1OC [Example 42, 6-((6-fluoropyridin-2-yl)amino)-N-methoxy-4-((2-methoxy-3-(1H-pyrazol-1-yl)phenyl)amino)nicotinamide]	0.00151	> 10	> 10	–
CONC(=O)c1cnc(Nc2ccc(C#N)cn2)cc1Nc1ccccc1N(C)S(C)(=O)=O [Example 43, 6-((5-cyanopyridin-2-yl)amino)-N-methoxy-4-((2-(N-methylmethanesulfonamido)phenyl)amino)nicotinamide]	0.00118	> 10	> 10	–
CONC(=O)c1cnc(Nc2cc(C)c(F)cn2)cc1Nc1ccccc1N(C)S(C)(=O)=O [Example 44, 6-((5-fluoro-4-methylpyridin-2-yl)amino)-N-methoxy-4-((2-(N-methylmethanesulfonamido)phenyl)amino)nicotinamide]	0.00104	> 10	> 10	–

More lines, main results first:

IC50 ([3]; U2OS) [µM]	Compound	IC50 [1] [µM]	IC50 [2] [µM]	IC50 [3] [µM]
0.000855	CONC(=O)c1cnc(Nc2cc(C)nc(C)n2)cc1Nc1ccccc1N(C)S(C)(=O)=O [Example 45]	> 10	> 10	–
0.00109	CONC(=O)c1cnc(Nc2ccc(F)cn2)cc1Nc1ccc(Cl)cc1N(C)S(C)(=O)=O [Example 46, 4-((4-chloro-2-(N-methylmethanesulfonamido)phenyl)amino)-6-((5-fluoropyridin-2-yl)amino)-N-methoxy nicotinamide]	> 10	> 10	–
0.00134	CONC(=O)c1cnc(Nc2cccc(F)n2)cc1Nc1ccc(Cl)cc1N(C)S(C)(=O)=O [Example 47, 4-((4-chloro-2-(N-methylmethanesulfonamido)phenyl)amino)-6-((6-fluoropyridin-2-yl)amino)-N-methoxy nicotinamide]	> 10	> 10	–
0.00115	CONC(=O)c1cnc(Nc2ccc(F)cn2)cc1Nc1ccc(C)nc1N(C)S(C)(=O)=O [Example 60]	> 10	> 10	–
0.0017	CONC(=O)c1cnc(Nc2ccc(F)cn2)cc1Nc1ccc(OCC2CC2)cc1N(C)S(C)(=O)=O [Example 61, 4-((4-(cyclopropylmethoxy)-2-(N-methylmethanesulfonamido)phenyl)amino)-6-((5-fluoropyridin-2-yl)amino)-N-methoxy nicotinamide]	> 10	> 10	–
0.00129	CONC(=O)c1cnc(Nc2cccc(F)n2)cc1Nc1ccc(OCC2CC2)cc1N(C)S(C)(=O)=O [Example 62, 4-((4-(cyclopropylmethoxy)-2-(N-methylmethanesulfonamido)phenyl)amino)-6-((6-fluoropyridin-2-yl)amino)-N-methoxy nicotinamide]	> 10	> 10	–
0.000865	CONC(=O)c1cnc(NC(=O)C2CC2)cc1Nc1ccc(OCC2CC2)cc1N(C)S(C)(=O)=O [Example 63, 6-(cyclopropylcarboxamido)-4-((4-(cyclopropylmethoxy)-2-(N-methylmethanesulfonamido)phenyl)amino)-N-methoxy nicotinamide]	> 10	> 10	–
0.00131	[2H]C([2H])([2H])ONC(=O)c1cnc(Nc2cccc(F)n2)cc1Nc1ccc(C2CC2)cc1N(C)S(C)(=O)=O [Example 68, 4-((4-cyclopropyl-2-(N-methylmethanesulfonamido)phenyl)amino)-6-((6-fluoropyridin-2-yl)amino)-N-(methoxy-d3)nicotinamide]	> 10	> 10	–
